In US20100292231A1, “Indazole Compounds for Treating Inflammatory Disorders, Demyelinating Disorders and Cancers” (priority 2007, published 2010):

How the values were obtained:
[1] = target: T1, FLT3 (Homo sapiens, UniProt P36888); assay: SelectScreen FLT3 kinase dose response assay; assay type: biochemical; details: ATP 100 micromolar; for EC50: dose response, 4 parameter Hill equation, read-out: FLT3 Inhibition EC50
T1 construct: purchased Invitrogen (SelectScreen platform)
T1 sequence (P36888 27-993): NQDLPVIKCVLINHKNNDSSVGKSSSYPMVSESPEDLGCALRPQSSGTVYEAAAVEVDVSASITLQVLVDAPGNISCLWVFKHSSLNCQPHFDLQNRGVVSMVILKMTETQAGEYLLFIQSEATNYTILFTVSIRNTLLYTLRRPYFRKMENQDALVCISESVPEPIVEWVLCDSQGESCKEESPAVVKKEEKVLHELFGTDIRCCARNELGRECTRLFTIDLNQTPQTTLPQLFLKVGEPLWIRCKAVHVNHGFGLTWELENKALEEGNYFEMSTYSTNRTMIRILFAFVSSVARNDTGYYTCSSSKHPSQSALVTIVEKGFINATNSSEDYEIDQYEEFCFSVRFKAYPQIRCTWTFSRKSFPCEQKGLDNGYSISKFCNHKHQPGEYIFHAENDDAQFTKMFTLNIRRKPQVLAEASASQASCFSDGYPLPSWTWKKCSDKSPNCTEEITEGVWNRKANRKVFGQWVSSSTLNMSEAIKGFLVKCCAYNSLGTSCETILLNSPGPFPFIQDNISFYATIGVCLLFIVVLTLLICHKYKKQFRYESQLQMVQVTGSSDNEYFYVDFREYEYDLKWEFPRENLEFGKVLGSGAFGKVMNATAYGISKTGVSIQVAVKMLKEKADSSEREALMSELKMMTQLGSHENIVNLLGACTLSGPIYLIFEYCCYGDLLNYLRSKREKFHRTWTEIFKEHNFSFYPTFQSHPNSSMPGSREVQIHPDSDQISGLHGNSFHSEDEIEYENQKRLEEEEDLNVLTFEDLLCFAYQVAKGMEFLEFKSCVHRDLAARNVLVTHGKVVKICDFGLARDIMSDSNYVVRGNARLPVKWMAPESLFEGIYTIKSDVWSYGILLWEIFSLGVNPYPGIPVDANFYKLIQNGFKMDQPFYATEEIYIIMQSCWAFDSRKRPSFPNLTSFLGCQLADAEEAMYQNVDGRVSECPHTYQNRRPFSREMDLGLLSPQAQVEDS
Description: The terms “IC50” and “EC50” are used interchangeably. As used herein, “EC50” refers to nMolar concentration at median percent inhibition determined by dose respose (DR) assay. As used herein, the term “E1000” refers to percent inhibition at 1000 nMolar determined by assay.
Testing of the compounds described in this invention was carried out using the SelectScreen™ platform from Invitrogen, Inc. (Carlsbad. Calif., USA) and the details of its performance are readily viewed via the web by linking to: http://www.invitrogen.com/downloads/SelectScrn_Brochure.pdf.
Briefly, the approach is based on treating each specific kinase with a unique substrate and optical reporter system in the presence of ATP at 100 micromolar. In controls, the substrate is phosphorylated and a baseline optimal response is recorded.
The compounds were then re-tested by adding graded amounts of putative inhibitor which were added in 5 separate increments to generate a dose response curve. The latter is obtained by fitting to a 4 parameter Hill equation, a sigmoid saturation equation.
For the compounds of this invention, the experimental conditions were as follows. The 2× FLT3/Tyr 02 peptide mixture was prepared in 50 mM HEPES pH 7.5, 0.01 BRIJ-35, 10 mM MgCl2, 1 mM EGTA. The final 10 uL kinase reaction consists of 0.6-76.0 ng FLT3 and 2 uM Tyr 02 peptide in 50 mM HEPES pH 7.5, 0.01% BRIJ-35, 10 mM MgCl2, 1 mM EGTA. After 1 hour kinase reaction incubation, 5 uL of a 1:64 dilution of development reagent A was added.

[2] = test system: Raw264.7 (murine macrophage-like cells); assay: sulforhodamine B (SRB) cytotoxicity assay; assay type: cell-based; details: Mus musculus, RAW264.7, 144 h; 25 μM highest concentration, diluted 1:5; 6 days; read-out: IC50 Measured Against Raw264.7 Cell Line

| inhibition at 1 µM ([1]; 1000 nMolar compound, read-out: FLT3 Inhibition E1000 (percent inhibition at 1000 nMolar)) [%] | EC50 [1] [nM] | FLT3 Inhibition E1000 (percent inhibition at 1000 nMolar) ([1]; 1000 nMolar compound) [%] | Compound | IC50 [2] [nM] |
| --- | --- | --- | --- | --- |
| 47 | 1330 | – | O=c1c2c(F)ccc3ncn(c4ccc5[nH]ncc5c14)c32 [(XVIII)] | – |
| – | 38 | 93 | Cc1nc2cc3nc(-c4cccs4)cnc3cc2n1C [AGL-2043, reference compound] | – |
| – | 26 | 95 | c1ccc(-c2n[nH]c3c2oc2ccccc23)cc1 [GTP-14564, reference compound] | – |
| – | – | – | CCN(CC)CCNC(=O)c1c(C)[nH]c(/C=C2\C(=O)Nc3ccc(F)cc32)c1C [Sunitinib, sunitinib, reference compound] | 763 |
